The values below come from PMC3057018, “Inhibition of Recombinant D-Amino Acid Oxidase from Trigonopsis variabilis by Salts” (Enzyme Research, 2011).

Molecules are shown by their SMILES.

Assay [1] has as its target T1, TvDAAO (recombinant His-tagged D-amino acid oxidase from Trigonopsis variabilis) (Trigonopsis variabilis, UniProt Q99042). As to the kind of experiment: intrinsic tryptophan fluorescence (excitation […] nm) of reconstituted holoenzyme with NaCl. It is filed as binding. On the set-up: gene DAO1; N-terminal hexahistidine tag, expressed in E. coli mainly as apoenzyme, metal-chelate purified, holoenzyme reconstituted with FAD. The note with it: 25 °C; FAD dissociation by NaCl followed indirectly; holoenzyme reconstituted with 5-fold FAD; noncovalent.

For assay [2], the target named is T1, TvDAAO (recombinant His-tagged D-amino acid oxidase from Trigonopsis variabilis). As to the kind of experiment: DNPH end-point assay of pyruvate at […] nm. It is filed as biochemical. Also noted: gene DAO1; N-terminal hexahistidine tag, expressed in E. coli mainly as apoenzyme, metal-chelate purified, holoenzyme reconstituted with FAD. As to conditions: FAD added, potassium phosphate pH 8.0, 30 °C.

Assay [3] shares this target. The assay can be described thus: biochemical. On the set-up: gene DAO1.

T1 sequence (Q99042 whole entry): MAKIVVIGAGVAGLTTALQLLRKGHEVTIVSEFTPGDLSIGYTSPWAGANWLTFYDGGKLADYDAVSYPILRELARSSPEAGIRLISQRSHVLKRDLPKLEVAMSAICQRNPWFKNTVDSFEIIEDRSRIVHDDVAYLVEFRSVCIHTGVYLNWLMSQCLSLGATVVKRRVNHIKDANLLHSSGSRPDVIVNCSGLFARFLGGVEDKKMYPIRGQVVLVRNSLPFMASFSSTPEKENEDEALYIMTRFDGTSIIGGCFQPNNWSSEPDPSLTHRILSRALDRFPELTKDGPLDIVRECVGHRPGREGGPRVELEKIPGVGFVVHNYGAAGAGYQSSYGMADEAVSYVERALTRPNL

As to `Cc1cc2nc3c(=O)[nH]c(=O)nc-3n(C[C@H](O)[C@H](O)[C@H](O)COP(=O)(O)OP(=O)(O)OC[C@H]3O[C@@H](n4cnc5c(N)ncnc54)[C@H](O)[C@@H]3O)c2cc1C` [FAD], the “intrinsic tryptophan fluorescence (excitation 295 nm) of reconstituted holoenzym” value in assay [1] is “Such an effect may be related to the loss of cofactor FAD”.

For the molecule `C[C@@H](N)C(=O)O` [D-alanine], the “DNPH end-point assay of pyruvate at 450 nm” value in assay [2] is “measured the release of α-ketoacid from D-alanine during the reaction”.

The term Ki denotes a measure of affinity in units of concentration, obtained from inhibition or displacement. In the case of `Cl` [NaCl], the Ki in assay [3] is 85 mM.
